# Experimental data as given in the RepoRT retention time repository (doi:10.1016/j.foodchem.2021.129757).
# Legend:
# Settings in all cases: stereoisomer not certain
# [1] = RP, Merck Supelco SUPELCOSIL LC-C18, 250 × 4.6 mm, 5 µm, 40 °C, 1 mL/min, estimated dead time 2.6 min; A: water + 0.1% trifluoroacetic acid, pH 2; B: acetonitrile + 0.1% trifluoroacetic acid, pH 2; gradient (min/%B) 0/5 45/35 47/75 49/35 50/5
# [2] = RP, Agilent InfinityLab Poroshell 120 EC-C18, 100 × 3 mm, 2.7 µm, 25 °C, 0.4 mL/min, estimated dead time 1.1 min; A: water + 0.1% formic acid, pH 3; B: acetonitrile + 0.1% formic acid, pH 3; gradient (min/%B) 0/5 10/25 20/40 24/90 25/90 26/5 30/5
# [3] = RP, Waters Atlantis T3, 100 × 2.1 mm, 3 µm, 40 °C, 0.3 mL/min, estimated dead time 0.73 min; A: water + 0.1% trifluoroacetic acid, pH 2; B: acetonitrile + 0.1% trifluoroacetic acid, pH 2; gradient (min/%B) 0/10 1/10 6/40 7/50 8/50 14/70 16/80 20/10 25/10
# [4] = RP, Waters ACQUITY UPLC BEH Shield RP18, 150 × 2.1 mm, 1.7 µm, 40 °C, 0.4 mL/min, estimated dead time 0.83 min; A: water + 0.1% formic acid, pH 3; B: acetonitrile + 0.1% formic acid, pH 3; gradient (min/%B) 0/0 30/50 31/100 37/100 37.1/0
# [5] = RP, Phenomenex Synergi Hydro-RP, 250 × 2 mm, 4 µm, 25 °C, 0.2 mL/min, estimated dead time 2.5 min; A: water + 0.1% formic acid, pH 3; B: acetonitrile + 0.1% formic acid, pH 3; gradient (min/%B) 0/0.5 7/0.5 12/12.5 25/16.3 47/35 48/65 50/65 50.1/0.5
# [6] = Other, Phenomenex Kinetex PFP, 100 × 4.6 mm, 5 µm, 45 °C, 0.6 mL/min, estimated dead time 1.8 min; A: water + 0.1% trifluoroacetic acid, pH 2; B: methanol; gradient (min/%B) 0/40 20/72 21/40
# [7] = RP, Merck LiChrospher RP-18, 250 × 4 mm, 5 µm, 35 °C, 0.3 mL/min, estimated dead time 6.7 min; A: water + 0.5% formic acid; B: acetonitrile + 0.5% formic acid; gradient (min/%B) 0/5 10/5 30/15 45/20 65/20 95/54 110/63 115/5 135/5
# [8] = RP, Phenomenex Luna C18, 150 × 4.6 mm, 3 µm, 25 °C, 0.5 mL/min, estimated dead time 3.2 min; A: water + 0.1% formic acid, pH 3; B: acetonitrile + 0.1% formic acid, pH 3; gradient (min/%B) 0/0 30/30 35/40 50/80 52/80 60/0 65/0
# [9] = RP, Agilent ZORBAX Eclipse XDB-C18, 100 × 2.1 mm, 1.8 µm, 50 °C, 0.4 mL/min, estimated dead time 0.55 min; A: water + 0.1% formic acid, pH 3; B: methanol + 0.1% formic acid, pH 3; gradient (min/%B) 0/2 10/100 14.5/100 14.51/2 16.5/2
# [10] = RP, 50 × 0.5 mm, 2.7 µm, 35 °C, 0.01 mL/min, estimated dead time 0.62 min; A: water + 0.1% formic acid, pH 3; B: acetonitrile + 0.1% formic acid, pH 3; gradient (min/%B) 0/5 12/95 14/95 16/5
# [11] = RP, Waters ACQUITY UPLC BEH C18, 100 × 2.1 mm, 1.7 µm, 65 °C, 0.4 mL/min, estimated dead time 0.55 min; A: water + 0.1% formic acid, pH 3; B: 80% acetonitrile + 20% acetone + 0.1% formic acid, pH 3; gradient (min/%B) 0/0 5/100 5.5/0 6/0
# [12] = RP, 100 × 0.5 mm, 2.7 µm, 45 °C, 0.015 mL/min, estimated dead time 0.83 min; A: water + 0.9% formic acid; B: acetonitrile + 0.9% formic acid; gradient (min/%B) 0/1 0.5/1 4/95 4.5/1 5/1
# [13] = RP, Phenomenex Synergi Hydro-RP, 150 × 2 mm, 4 µm, 30 °C, 0.5 mL/min, estimated dead time 0.6 min; A: water + 0.1% formic acid, pH 3; B: acetonitrile + 0.1% formic acid, pH 3; gradient (min/%B) 0/5 1/5 35/45 40/100 45/100
# [14] = RP, Waters ACQUITY UPLC BEH Shield RP18, 100 × 2.1 mm, 1.7 µm, 30 °C, 0.6 mL/min, estimated dead time 0.37 min; A: water + 0.1% formic acid, pH 3; B: acetonitrile + 0.1% formic acid, pH 3; gradient (min/%B) 0/0 2/0 7/10 22/95 22.1/0 26/0
# [15] = RP, Phenomenex Luna Omega Polar C18, 100 × 2.1 mm, 1.6 µm, 40 °C, 0.5 mL/min, estimated dead time 0.44 min; A: water + 0.5% formic acid; B: acetonitrile + 0.5% formic acid; gradient (min/%B) 0/5 3/50 3.1/100 5/100 5.1/5 7/5
# [16] = RP, Waters ACQUITY UPLC HSS T3, 100 × 2.1 mm, 1.8 µm, 30 °C, 0.4 mL/min, estimated dead time 0.55 min; A: water + 0.1% formic acid, pH 3; B: acetonitrile + 0.1% formic acid, pH 3; gradient (min/%B) 0/0 2/0 15/100 22/100 22.1/0 26/0
# [17] = RP, Agilent ZORBAX RRHD Eclipse Plus C18, 50 × 2.1 mm, 1.8 µm, 30 °C, 0.4 mL/min, estimated dead time 0.28 min; A: water + 0.1% formic acid, pH 3; B: acetonitrile + 0.1% formic acid, pH 3; gradient (min/%B) 0/1 5/10 8/25 9.1/99 10/99 12/1
# [18] = RP, Agilent ZORBAX RRHD Eclipse Plus C18, 50 × 2.1 mm, 1.8 µm, 30 °C, 0.4 mL/min, estimated dead time 0.28 min; A: water + 0.1% formic acid, pH 3; B: acetonitrile + 0.1% formic acid, pH 3; gradient (min/%B) 0/1 5/10 8/25 9.1/99 10/99 12/99
# [19] = RP, Waters ACQUITY UPLC HSS T3, 100 × 2.1 mm, 50 °C; A: water + 0.1% formic acid, pH 3; B: 30% methanol + 70% acetonitrile + 0.1% formic acid, pH 3; gradient (min/%B) 0/5 1/8 2/15 3/40 4/70 4.5/100 5/100 6.4/100 6.6/5 6.8/5 7/5
# [20] = RP, Phenomenex Kinetex EVO C18, 100 × 2.1 mm, 2.6 µm, 40 °C, 0.4 mL/min, estimated dead time 0.55 min; A: water + 0.2% formic acid; B: acetonitrile + 0.2% formic acid; gradient (min/%B) 0/5 0.5/5 7/95 8/95 8.5/5 12/5
# [21] = RP, Phenomenex Luna Omega Polar C18, 100 × 2.1 mm, 1.6 µm, 40 °C, 0.5 mL/min, estimated dead time 0.44 min; A: water + 0.1% formic acid + 10 mM ammonium formate; B: acetonitrile; gradient (min/%B) 0/5 8/20 10/100 12/100 12.1/5 14/5
# [22] = RP, 150 × 2.1 mm, 2.6 µm, 40 °C, 0.35 mL/min, estimated dead time 0.94 min; A: water + 0.1% formic acid, pH 3; B: acetonitrile + 0.1% formic acid, pH 3; gradient (min/%B) 0/0 1/0 12.5/100 14/100 14.2/0 15/0
# [23] = RP, 150 × 2.1 mm, 2.6 µm, 40 °C, 0.35 mL/min, estimated dead time 0.94 min; A: water + 0.1% formic acid, pH 3; B: acetonitrile + 0.1% formic acid, pH 3; gradient (min/%B) 0/0 1/5 7/45 8.5/80 10.5/80 11/5 12/5
compound,measurement,setting,value
CC1OC(OCC2OC(Oc3c(-c4ccc(O)c(O)c4)oc4cc(O)cc(O)c4c3=O)C(O)C(O)C2O)C(O)C(O)C1O (centres undefined) [Rutin],LC retention time,[1],25.2 min
same,LC retention time,[2],8.79 min
same,LC retention time,[3],7.12 min
same,LC retention time,[4],12.6 min
same,LC retention time,[5],34.1 min
same,LC retention time,[6],8.63 min
same,LC retention time,[7],59.2 min
CC12CCc3occc3C1CCC13CC(CCC12)C(O)(CO)C3 (centres undefined) [Cafestol],LC retention time,[8],50 min
same,LC retention time,[9],9.33 min
same,LC retention time,[10],8.2 min
same,LC retention time,[11],3.19 min
same,LC retention time,[12],4.04 min
same,LC retention time,[13],37.9 min
same,LC retention time,[14],17.5 min
same,LC retention time,[15],2.42 min
same,LC retention time,[16],13.9 min
O=c1c(O)c(-c2ccc(O)c(O)c2)oc2cc(O)cc(O)c12 [Quercetin],LC retention time,[1],37.2 min
same,LC retention time,[2],14.1 min
same,LC retention time,[11],2.63 min
same,LC retention time,[17],9.04 min
same,LC retention time,[18],9.19 min
same,LC retention time,[19],3.74 min
same,LC retention time,[3],9.34 min
same,LC retention time,[4],20.4 min
same,LC retention time,[5],46.8 min
same,LC retention time,[6],16.6 min
same,LC retention time,[16],11 min
same,LC retention time,[7],91 min
O=C(O)c1cc(O)c(O)c(O)c1 [Gallic acid],LC retention time,[1],5.2 min
same,LC retention time,[8],5.35 min
same,LC retention time,[20],0.96 min
same,LC retention time,[2],2.36 min
same,LC retention time,[9],1.47 min
same,LC retention time,[10],1.44 min
same,LC retention time,[11],1.5 min
same,LC retention time,[17],1.64 min
same,LC retention time,[18],0.713 min
same,LC retention time,[3],1.56 min
same,LC retention time,[4],2.41 min
same,LC retention time,[14],2.69 min
same,LC retention time,[5],13.9 min
same,LC retention time,[6],3 min
same,LC retention time,[15],1.15 min
same,LC retention time,[16],4.98 min
same,LC retention time,[21],1.22 min
same,LC retention time,[7],16.5 min
O=C1c2c(O)cc(O)cc2OC(c2ccc(O)c(O)c2)C1O (centres undefined) [Taxifolin],LC retention time,[22],5.84 min
same,LC retention time,[1],23 min
same,LC retention time,[17],7.85 min
same,LC retention time,[18],8.66 min
same,LC retention time,[4],12.4 min
same,LC retention time,[23],5.86 min
same,LC retention time,[5],33.9 min
same,LC retention time,[6],7.73 min
same,LC retention time,[16],9.67 min
COc1ccc(C2CC(=O)c3c(O)cc(OC4OC(COC5OC(C)C(O)C(O)C5O)C(O)C(O)C4O)cc3O2)cc1O (centres undefined) [Hesperidin],LC retention time,[22],6 min
same,LC retention time,[1],30.1 min
same,LC retention time,[2],10.8 min
same,LC retention time,[3],10 min
same,LC retention time,[4],13 min
same,LC retention time,[23],6.18 min
same,LC retention time,[6],9.9 min
same,LC retention time,[16],9.62 min
same,LC retention time,[7],75.1 min
Oc1ccc(-c2[o+]c3cc(O)cc(O)c3cc2O)cc1 [Pelargonidin],LC retention time,[1],33.5 min
same,LC retention time,[6],12.9 min
same,LC retention time,[7],42 min
Cn1cnc2c1c(=O)[nH]c(=O)n2C [Theobromine],LC retention time,[8],6.29 min
same,LC retention time,[2],3.25 min
same,LC retention time,[9],2.49 min
same,LC retention time,[10],1.77 min
same,LC retention time,[11],1.39 min
same,LC retention time,[12],2.05 min
same,LC retention time,[19],2.12 min
same,LC retention time,[4],2.67 min
same,LC retention time,[14],4.4 min
same,LC retention time,[15],1.45 min
same,LC retention time,[16],7.1 min
O=C(O)c1ccc(O)cc1 [4-Hydroxybenzoic acid],LC retention time,[1],11.3 min
same,LC retention time,[20],2.18 min
same,LC retention time,[9],2.91 min
same,LC retention time,[11],1.65 min
same,LC retention time,[17],3.9 min
same,LC retention time,[18],2.55 min
same,LC retention time,[19],2.8 min
same,LC retention time,[3],3.58 min
same,LC retention time,[5],19.9 min
same,LC retention time,[6],5.08 min
same,LC retention time,[7],39.7 min
C[n+]1cccc(C(=O)[O-])c1 [Trigonelline],LC retention time,[10],0.771 min
same,LC retention time,[12],2.72 min
same,LC retention time,[4],1.03 min
same,LC retention time,[14],0.62 min
same,LC retention time,[15],0.58 min
same,LC retention time,[16],0.96 min
O=C(C=Cc1ccc(O)c(O)c1)OC1CC(O)(C(=O)O)CC(O)C1O (centres undefined) [Chlorogenic acid],LC retention time,[1],13.8 min
same,LC retention time,[8],12.3 min
same,LC retention time,[2],5.48 min
same,LC retention time,[9],3.27 min
same,LC retention time,[10],3.38 min
same,LC retention time,[11],1.64 min
same,LC retention time,[17],5.31 min
same,LC retention time,[18],4.49 min
same,LC retention time,[3],3.17 min
same,LC retention time,[4],7.05 min
same,LC retention time,[14],11 min
same,LC retention time,[5],20 min
same,LC retention time,[6],4.03 min
same,LC retention time,[15],1.81 min
same,LC retention time,[16],8.02 min
same,LC retention time,[21],3.49 min
same,LC retention time,[7],41.1 min
COc1cc(-c2[o+]c3cc(O)cc(O)c3cc2O)cc(OC)c1O [Malvidin],LC retention time,[1],35.9 min
same,LC retention time,[6],14.3 min
